In patent US20150283120A1, “ANTIBIOTIC METHODS AND COMPOSITIONS FOR BACTERIA INFECTIONS” (THE UNIVERSITY OF CHICAGO, priority 2012, published 2015):
Counter-ions that a name gives are not always drawn.

Columns and labels:
[1] = tested on: MRSA strain USA300 Pvra-lux; type: cell-based, Staphylococcus aureus; conditions: compound 10 μM + oxacillin 2 μg/mL; for RG avg (relative growth): ratio of OD600 to oxacillin alone, four runs
Protocol: (§1) In the secondary screen each microtiter plate contained either cells in TSB alone (16 replicates), cells with oxacillin (2 μg/mL, 31 replicates), or cells with test compound and oxacillin (2 μg/mL, 49 wells). Each compound was assayed in four separate biological replicates.
(§2) All compounds classified in the primary screen as synergists that were vraSR-stimulating or -repressing (as shown in Table 8) were screened in a secondary assay for their effects on both growth and Pvra::lux induction by oxacillin. […] Each compound was tested four separate times at 10 μM in the presence of oxacillin (2 μg/mL) and luminescence was measured every 15 minutes. Relative growth (RG) and relative luminescence (RL) was calculated as the ratio between the OD600 or max LU value in the presence of compound and oxacillin over the average from pooled control values obtained from the same plate. […] Compounds that produced an average RG (ratio of the OD600 of the culture grown with test compound combined with oxacillin to that of oxacillin alone) of <0.8 were classified as oxacillin synergists or potentiators. The relative luminescence (RL) was the ratio of the LU produced in the presence of the test compound combined with oxacillin to that produced by oxacillin alone. Compounds were classified as “vraSR repressors” (mean RL of <0.8), “vraSR stimulators”, (mean RL>1.2), and “vraSR neutral” (mean RL between 0.80-1.2). […] In contrast, 34 compounds had no effect on growth in the presence of oxacillin (“un” in the OD600 category). Among the oxacillin potentiators, there were 2 vraSR stimulators, 3 vraSR neutral compounds and 10 vraSR repressors.

[2] = tested on: vraSR transcription (Pvra::lux); type: cell-based, Staphylococcus aureus; conditions: compound 10 μM + oxacillin 2 μg/mL; for RL avg (relative luminescence): ratio of LU to oxacillin alone, four runs
Protocol: as §1, §2

| SMILES | OD600 category [1] | RG avg (relative growth) [1] | Effect on vraSR transcription [2] | RL avg (relative luminescence) [2] |
| --- | --- | --- | --- | --- |
| CCN(CC)CCOc1ccc(C(=C(Cl)c2ccccc2)c2ccccc2)cc1 (racemic) [Clomiphene citrate (Z,E), 2-(4-(2-chloro-1,2-diphenylethenyl)phenoxy)-N,N-diethyl-ethanamine] | inhibited (of <0.8 were classified as oxacillin synergists or potentiators) | 0.68 | repress (“vraSR repressors” (mean RL of <0.8)) | 0.39 |
| COc1ccc(-c2cc(=O)c3c(O)cc(O)cc3o2)cc1 [Acacetin] | un (no effect on growth in the presence of oxacillin (“un” in the OD600 category)) | 0.91 | neutral (“vraSR neutral” (mean RL between 0.80-1.2)) | 0.88 |
| CC1(C)S[C@@H]2[C@H](NC(=O)[C@H](NC(=O)N3CCNC3=O)c3ccccc3)C(=O)N2[C@H]1C(=O)O [Azlocillin sodium salt] | un (no effect on growth in the presence of oxacillin (“un” in the OD600 category)) | 0.91 | neutral (“vraSR neutral” (mean RL between 0.80-1.2)) | 0.78 |
| CCC(=O)OCC(=O)[C@@]1(OC(=O)CC)[C@@H](C)C[C@H]2[C@@H]3CCC4=CC(=O)C=C[C@]4(C)[C@@]3(Cl)[C@@H](O)C[C@@]21C [Beclomethasone dipropionate] | un (no effect on growth in the presence of oxacillin (“un” in the OD600 category)) | 0.96 | neutral (“vraSR neutral” (mean RL between 0.80-1.2)) | 0.96 |
| NS(=O)(=O)c1cc2c(cc1Cl)N=C(CSCc1ccccc1)NS2(=O)=O [Benzthiazide] | un (no effect on growth in the presence of oxacillin (“un” in the OD600 category)) | 1.01 | neutral (“vraSR neutral” (mean RL between 0.80-1.2)) | 0.95 |
| C=C(C)[C@@H]1CC[C@]2(C(=O)O)CC[C@]3(C)[C@H](CC[C@@H]4[C@@]5(C)CC[C@H](O)C(C)(C)[C@@H]5CC[C@]43C)[C@@H]12 [Betulinic acid] | un (no effect on growth in the presence of oxacillin (“un” in the OD600 category)) | 0.87 | neutral (“vraSR neutral” (mean RL between 0.80-1.2)) | 0.83 |
| CCCC(=O)Nc1ncnc2c1ncn2[C@@H]1O[C@@H]2COP(=O)(O)O[C@H]2[C@H]1OC(=O)CCC [Bucladesine sodium salt] | un (no effect on growth in the presence of oxacillin (“un” in the OD600 category)) | 1.02 | neutral (“vraSR neutral” (mean RL between 0.80-1.2)) | 0.94 |
| CCCCN(CCCC)CCCOC(=O)c1ccc(N)cc1 [Butacaine] | un (no effect on growth in the presence of oxacillin (“un” in the OD600 category)) | 1.03 | neutral (“vraSR neutral” (mean RL between 0.80-1.2)) | 0.98 |
| C=C1CC[C@H](O)C/C1=C/C=C1\CCC[C@]2(C)[C@@H]([C@H](C)/C=C/[C@H](C)C(C)C)CC[C@@H]12 [Calciferol] | un (no effect on growth in the presence of oxacillin (“un” in the OD600 category)) | 0.96 | neutral (“vraSR neutral” (mean RL between 0.80-1.2)) | 0.88 |
| C(=C\c1ccccc1)/CN1CCN(C(c2ccccc2)c2ccccc2)CC1 [Cinnarizine] | un (no effect on growth in the presence of oxacillin (“un” in the OD600 category)) | 0.97 | neutral (“vraSR neutral” (mean RL between 0.80-1.2)) | 0.94 |
| CCn1nc(C(=O)O)c(=O)c2cc3c(cc21)OCO3 [Cinoxacin] | un (no effect on growth in the presence of oxacillin (“un” in the OD600 category)) | 1.05 | neutral (“vraSR neutral” (mean RL between 0.80-1.2)) | 1.03 |
| C[N+]12CCC(CC1)C(OC(=O)C(O)(c1ccccc1)c1ccccc1)C2 (stereo not drawn) [Clidinium bromide] | un (no effect on growth in the presence of oxacillin (“un” in the OD600 category)) | 0.97 | neutral (“vraSR neutral” (mean RL between 0.80-1.2)) | 0.95 |
| COc1cccc2c1C(=O)c1c(O)c3c(c(O)c1C2=O)C[C@@](O)(C(C)=O)C[C@@H]3O[C@H]1C[C@H](N)[C@H](O)[C@H](C)O1 [Daunorubicin hydrochloride] | un (no effect on growth in the presence of oxacillin (“un” in the OD600 category)) | 0.98 | repress (“vraSR repressors” (mean RL of <0.8)) | 1.00 |
| C[C@]12CC[C@H](O)C[C@H]1CC[C@@H]1[C@@H]2CC[C@]2(C)[C@@H](C3=CC(=O)OC3)CC[C@]12O [Digitoxigenin] | un (no effect on growth in the presence of oxacillin (“un” in the OD600 category)) | 1.01 | neutral (“vraSR neutral” (mean RL between 0.80-1.2)) | 0.97 |
| O=c1[nH]c2ccccc2n1CCCN1CCC(n2c(=O)[nH]c3cc(Cl)ccc32)CC1 [Domperidone] | un (no effect on growth in the presence of oxacillin (“un” in the OD600 category)) | 0.91 | neutral (“vraSR neutral” (mean RL between 0.80-1.2)) | 0.85 |
| COc1cccc2c1C(=O)c1c(O)c3c(c(O)c1C2=O)C[C@@](O)(C(=O)CO)C[C@@H]3O[C@H]1C[C@H](N)[C@H](O)[C@H](C)O1 [Doxorubicin hydrochloride] | un (no effect on growth in the presence of oxacillin (“un” in the OD600 category)) | 0.88 | repress (“vraSR repressors” (mean RL of <0.8)) | 0.83 |
| O=C(CCCN1CC=C(n2c(=O)[nH]c3ccccc32)CC1)c1ccc(F)cc1 [Droperidol] | un (no effect on growth in the presence of oxacillin (“un” in the OD600 category)) | 1.02 | neutral (“vraSR neutral” (mean RL between 0.80-1.2)) | 0.91 |
| C#C[C@]1(O)CC[C@H]2[C@@H]3CCc4cc(OC)ccc4[C@H]3CC[C@@]21C [Ethynylestradiol 3-methyl ether] | un (no effect on growth in the presence of oxacillin (“un” in the OD600 category)) | 0.95 | repress (“vraSR repressors” (mean RL of <0.8)) | 0.97 |
| O=C1OC(CN2CCOCC2)CN1/N=C/c1ccc([N+](=O)[O-])o1 (stereo not drawn) [Furaltadone hydrochloride] | un (no effect on growth in the presence of oxacillin (“un” in the OD600 category)) | 1.00 | repress (“vraSR repressors” (mean RL of <0.8)) | 1.01 |
| N=C(N)NC(=O)Cc1c(Cl)cccc1Cl [Guanfacine hydrochloride] | un (no effect on growth in the presence of oxacillin (“un” in the OD600 category)) | 0.88 | neutral (“vraSR neutral” (mean RL between 0.80-1.2)) | 0.79 |
| CC(C(=O)O)c1ccc(N2Cc3ccccc3C2=O)cc1 (stereo not drawn) [Indoprofen] | un (no effect on growth in the presence of oxacillin (“un” in the OD600 category)) | 0.98 | neutral (“vraSR neutral” (mean RL between 0.80-1.2)) | 0.87 |
| N[C@@H](Cc1cc(I)c(Oc2ccc(O)c(I)c2)c(I)c1)C(=O)O [Liothyronine] | un (no effect on growth in the presence of oxacillin (“un” in the OD600 category)) | 0.88 | neutral (“vraSR neutral” (mean RL between 0.80-1.2)) | 0.87 |
| CN(C)CCOC(=O)COc1ccc(Cl)cc1 [Meclofenoxate hydrochloride] | un (no effect on growth in the presence of oxacillin (“un” in the OD600 category)) | 1.08 | neutral (“vraSR neutral” (mean RL between 0.80-1.2)) | 1.08 |
| O=C1c2c(O)ccc(O)c2C(=O)c2c(NCCNCCO)ccc(NCCNCCO)c21 [Mitoxantrone dihydrochloride] | un (no effect on growth in the presence of oxacillin (“un” in the OD600 category)) | 0.94 | neutral (“vraSR neutral” (mean RL between 0.80-1.2)) | 0.83 |
